Measurements published in US6090839A, “Antidiabetic agents” (Merck & Co., Inc., priority 1997, dated 2000).
pKd: −log10 of the molar value.

Tests used:
[1] = molecular target: T1, human PPARγ2 (Homo sapiens, UniProt P37231); experiment: PPAR Receptor Binding Assay: [3H]AD-5075 Displacement Assay for PPARγ2; conditions: [3H2]AD-5075, gst-PPARγ2, ~16 h at 4° C., pH 7.2
T1 construct: The full length human cDNA for PPARγ2 and PPARδ were subcloned; made in house; host or cells: E. coli
T1 sequence (P37231 1-505): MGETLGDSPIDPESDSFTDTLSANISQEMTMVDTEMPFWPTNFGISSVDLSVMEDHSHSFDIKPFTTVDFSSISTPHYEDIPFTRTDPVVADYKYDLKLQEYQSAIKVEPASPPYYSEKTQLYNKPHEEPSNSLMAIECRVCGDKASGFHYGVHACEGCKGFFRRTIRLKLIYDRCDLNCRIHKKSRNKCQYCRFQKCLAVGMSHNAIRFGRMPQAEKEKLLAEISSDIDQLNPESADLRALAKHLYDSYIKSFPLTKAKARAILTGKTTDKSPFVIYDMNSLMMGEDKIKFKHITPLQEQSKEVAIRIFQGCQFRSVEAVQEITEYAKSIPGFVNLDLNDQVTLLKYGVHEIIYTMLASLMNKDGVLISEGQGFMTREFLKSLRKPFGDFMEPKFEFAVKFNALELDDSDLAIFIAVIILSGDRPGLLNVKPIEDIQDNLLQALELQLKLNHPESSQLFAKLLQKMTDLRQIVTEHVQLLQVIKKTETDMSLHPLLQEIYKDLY
Excerpt: (§1) Compounds of the instant invention which are useful for the above discussed treatments can be identified and/or characterized by employing the PPARδ, and γ binding assays. The assays are useful in predicting or quantitating in vivo effects having to do with the control or modulation of glucose, free fatty acid, triglyceride, insulin or cholesterol. To evaluate IC50 or EC50, values the compounds were titrated in the appropriate assay using different concentrations of the compound to be tested. To obtain the appropriate values (%Inhibition-IC50, or %Activation-EC50), the data resulting from the assays were then analyzed by determining the best fit of a 4 parameter function to the data using the Levenberg-Marquardt non-linear fitting algorithm in Kaleidagraph (Synergy Software, Reading, Pa). The human nuclear receptor cDNA for PPARδ (hPPARδ) has been cloned from a human osteosarcoma cell cDNA library and is fully described in A. Schmidt et al., Molecular Endocrinology, 6:1634-1641 (1992), herein incorporated by reference in its entirety. See A. Elbrecht et al., Biochem. and Biophy. Res. Comm. 224:431-437 (1996) and T. Sher et al., Biochem. 32:5598-5604 (1993) for a description of the human nuclear receptor gene PPARγ, and α.
Human PPARγ2 and PPARδ, independently, were prepared as gst-fusion proteins in E. coli. […]

[2] = molecular target: T2, human PPARδ (Homo sapiens, UniProt Q03181); experiment: PPAR Receptor Binding Assay: [3H2]Example 11 Displacement Assay for PPARδ; conditions: [3H2]Example 11, gst-PPARδ, ~16 h at 4° C., pH 7.2
T2 construct: The full length human cDNA for PPARγ2 and PPARδ were subcloned; made in house; host or cells: E. coli
T2 sequence (Q03181 1-441): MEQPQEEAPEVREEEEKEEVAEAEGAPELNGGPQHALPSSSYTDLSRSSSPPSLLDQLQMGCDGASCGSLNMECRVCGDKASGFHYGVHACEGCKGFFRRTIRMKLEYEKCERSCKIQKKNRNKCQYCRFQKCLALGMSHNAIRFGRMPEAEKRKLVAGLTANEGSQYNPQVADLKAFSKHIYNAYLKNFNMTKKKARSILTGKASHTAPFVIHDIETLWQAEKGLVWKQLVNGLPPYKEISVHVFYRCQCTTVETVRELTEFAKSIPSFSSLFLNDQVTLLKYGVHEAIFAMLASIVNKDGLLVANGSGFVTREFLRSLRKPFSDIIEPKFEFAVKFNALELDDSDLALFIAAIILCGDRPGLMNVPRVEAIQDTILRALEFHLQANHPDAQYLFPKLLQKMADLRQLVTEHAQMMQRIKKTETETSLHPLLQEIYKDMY
Excerpt: as §1
The hPPARδ binding assay comprises the steps of: […]

## Cc1oc(-c2ccccc2)nc1C(O)COc1ccc(CC2SC(=O)NC2=O)cc1 (centres unmarked) [AD-5075]
[1]
  pKd: ~9.00

## CCCc1c(OCCc2cc3c4c(ccc3o2)C(C(=O)O)CCC4)ccc2c(-c3ccccc3)noc12 (centres unmarked) [Example 11, 2-(2-(3-phenyl-7-propylbenz[4,5]isoxazol-6-yloxy)ethyl)-4,5,6,7-tetrahydronaphtho[2,1-b]furan-7-carboxylic acid]
[2]
  pKd: ~9.00
